The record followed here is PMC7692551, “Characterization of a Robust and pH-Stable Tannase from Mangrove-Derived Yeast Rhodosporidium diobovatum Q95” (Marine Drugs, 2020).

For this experiment, the system named is T1, TanRd.
T1 construct: recombinant secreted from Yarrowia lipolytica, codon-optimised, XPR2 signal peptide, His-tag; ORF 1719 bp, 572 aa, predicted native signal peptide 1-19
Put plainly: gallate ester hydrolysis, gallic acid release. In kind it is biochemical, Rhodotorula diobovata. The note with it: kinetic assay conditions not stated. The text has this: gallate ester hydrolysis, gallic acid release on TanRd

As to `O=C(O[C@@H]1Cc2c(O)cc(O)cc2O[C@@H]1c1cc(O)c(O)c(O)c1)c1cc(O)c(O)c(O)c1` [EGCG, epigallocatechin gallate], the Km (commonly the concentration of substrate that gives half-maximal velocity) is 2.19 mM.

With `O=C(O[C@@H]1Cc2c(O)cc(O)cc2O[C@@H]1c1ccc(O)c(O)c1)c1cc(O)c(O)c(O)c1` [ECG, epicatechin gallate], the Km worked out at 1.65 mM.

As to `CCCOC(=O)c1cc(O)c(O)c(O)c1` [PG, propyl gallate], the Km is 1.49 mM.

As to `O=C(O[C@H]1Cc2c(O)cc(O)cc2O[C@@H]1c1ccc(O)c(O)c1)c1cc(O)c(O)c(O)c1` [CG, catechin gallate], the Km was found to be 1.67 mM.

As for `COC(=O)c1cc(O)c(O)c(O)c1` [MG, methyl gallate], the Km stood at 2.31 mM.
